From publication PMC4545913, “Dual EZH2 and EHMT2 histone methyltransferase inhibition increases biological efficacy in breast cancer cells” (Clinical Epigenetics, 2015) come the findings set out here.

Test [1] deals with trimeric PRC2 complex (EZH2:EED:SUZ12) (Homo sapiens, UniProt O75530+Q15022+Q15910). Nature of the test: PRC2 enzymatic assay (SPA-type), biotinylated-H3 (21–44) peptide substrate. It is filed as biochemical. The note with it: EZH2:EED:SUZ12, biotinylated-H3 (21–44) peptide substrate. An excerpt: (§1) A trimeric PRC2 complex (EZH2:EED:SUZ12) was employed in this assay, along with a biotinylated-H3 (21–44) peptide substrate. […] Since the peptide substrates used in these assays are poor models for the complex and dynamic structure of the chromatin substrate in cells and since the only minimal number of PRC2 proteins (EZH2:EED:SUZ12) required for enzymatically active EZH2 were employed in the PRC2 assay, care should be taken in the over interpretation of this in vitro inhibitory data.
trimeric PRC2 complex (EZH2:EED:SUZ12) (Homo sapiens, UniProt O75530+Q15022+Q15910), sequence (Q15910 whole entry): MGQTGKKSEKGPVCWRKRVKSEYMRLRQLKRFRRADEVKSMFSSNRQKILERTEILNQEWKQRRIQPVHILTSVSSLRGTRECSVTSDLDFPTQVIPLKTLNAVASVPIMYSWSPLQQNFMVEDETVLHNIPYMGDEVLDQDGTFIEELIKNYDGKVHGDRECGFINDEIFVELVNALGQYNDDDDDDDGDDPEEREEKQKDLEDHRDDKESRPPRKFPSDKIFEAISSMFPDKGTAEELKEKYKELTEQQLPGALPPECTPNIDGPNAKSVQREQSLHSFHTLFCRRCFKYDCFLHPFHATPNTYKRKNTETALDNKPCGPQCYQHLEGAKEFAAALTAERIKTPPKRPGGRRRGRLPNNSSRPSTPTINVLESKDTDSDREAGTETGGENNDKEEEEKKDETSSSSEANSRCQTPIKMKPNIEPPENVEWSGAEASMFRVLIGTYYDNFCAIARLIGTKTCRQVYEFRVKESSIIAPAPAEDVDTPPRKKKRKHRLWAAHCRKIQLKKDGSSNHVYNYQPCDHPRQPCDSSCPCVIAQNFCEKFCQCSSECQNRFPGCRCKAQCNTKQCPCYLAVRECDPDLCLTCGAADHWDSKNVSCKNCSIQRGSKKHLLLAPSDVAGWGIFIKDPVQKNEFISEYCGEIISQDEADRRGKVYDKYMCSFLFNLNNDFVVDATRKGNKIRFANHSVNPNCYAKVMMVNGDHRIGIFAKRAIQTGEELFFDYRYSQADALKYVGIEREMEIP
trimeric PRC2 complex (EZH2:EED:SUZ12) (Homo sapiens, UniProt O75530+Q15022+Q15910), sequence (O75530 whole entry partner): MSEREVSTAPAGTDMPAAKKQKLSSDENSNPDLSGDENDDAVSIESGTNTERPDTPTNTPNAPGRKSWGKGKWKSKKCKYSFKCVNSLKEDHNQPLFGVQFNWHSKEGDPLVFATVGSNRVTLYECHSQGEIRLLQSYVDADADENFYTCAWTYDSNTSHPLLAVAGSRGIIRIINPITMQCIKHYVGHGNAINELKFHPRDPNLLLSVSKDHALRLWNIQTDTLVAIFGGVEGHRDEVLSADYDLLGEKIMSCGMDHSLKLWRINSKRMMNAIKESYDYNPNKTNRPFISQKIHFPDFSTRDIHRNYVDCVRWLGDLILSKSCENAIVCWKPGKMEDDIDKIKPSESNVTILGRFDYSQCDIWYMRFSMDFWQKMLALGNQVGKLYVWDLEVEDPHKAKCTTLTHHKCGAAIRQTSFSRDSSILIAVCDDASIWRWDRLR
trimeric PRC2 complex (EZH2:EED:SUZ12) (Homo sapiens, UniProt O75530+Q15022+Q15910), sequence (Q15022 whole entry partner): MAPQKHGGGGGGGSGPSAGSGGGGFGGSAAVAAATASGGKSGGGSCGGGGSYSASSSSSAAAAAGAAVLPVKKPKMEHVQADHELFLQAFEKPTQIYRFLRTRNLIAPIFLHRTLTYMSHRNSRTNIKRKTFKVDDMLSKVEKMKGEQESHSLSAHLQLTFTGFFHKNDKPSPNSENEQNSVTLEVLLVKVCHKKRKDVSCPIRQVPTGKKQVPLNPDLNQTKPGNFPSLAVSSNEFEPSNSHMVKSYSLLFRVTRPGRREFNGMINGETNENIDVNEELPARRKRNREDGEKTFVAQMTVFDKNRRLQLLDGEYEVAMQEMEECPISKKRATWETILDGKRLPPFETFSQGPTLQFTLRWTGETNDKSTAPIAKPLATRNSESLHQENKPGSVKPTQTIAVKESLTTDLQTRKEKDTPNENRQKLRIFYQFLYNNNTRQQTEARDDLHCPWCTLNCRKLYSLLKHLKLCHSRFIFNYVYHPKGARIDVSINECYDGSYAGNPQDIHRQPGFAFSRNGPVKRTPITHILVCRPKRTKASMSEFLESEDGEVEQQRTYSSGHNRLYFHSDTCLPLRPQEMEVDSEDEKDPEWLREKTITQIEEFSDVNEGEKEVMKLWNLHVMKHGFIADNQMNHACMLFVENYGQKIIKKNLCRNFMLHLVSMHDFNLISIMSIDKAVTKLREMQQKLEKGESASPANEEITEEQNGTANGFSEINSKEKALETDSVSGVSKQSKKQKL

Test [2] has as its target trimeric PRC2 complex (EZH2:EED:SUZ12) (Homo sapiens, UniProt Q15910). The test is described as above. It is filed as biochemical. Particulars: mechanism of inhibition studies (Figure S4).
From the text: as §1

The next test has as its system SPINK1. In words: qRT-PCR of SPINK1 mRNA in MDA-MB-231 cells. It is filed as cell-based. Particulars: MDA-MB-231, multiple doses and time points. As to the method:
Following compound treatment of MDA-MB-231 for 48 h (in 6-well plates), media was removed and 1.5 ml of TRIzol (Invitrogen) was added directly to lyse cells and RNA was isolated according to the manufacturer’s instructions. Reverse transcription was done using the SuperScript III First-Strand Synthesis System (Invitrogen) according to the manufacturer’s instructions. Each measurement was done in triplicate, and the List of Primers can be found in Additional file 2: Table S1. For normalisation, we have used GAPDH and RNA pol II. Experiments were also done with the ‘Fast Sybr Green Cell-to-CT™-Kit’ according to the manufacturer’s instructions (Applied Biosystem). Fifteen thousand cells per 96 well were plated, and after 24 h, treated with compounds at various concentrations.
For qRT-PCR measurements the 2x iQ SYBR Green Supermix (Bio-Rad), 200nM Primers and 0.4μl of cDNA /per 20μl reaction was used. The measurement was done in low-white 96-well plates (Bio-Rad) on a CFX96 Real-time System/C1000 Thermal Cycler (Bio-Rad) with the following protocol: 95°C for 3’; 95°C for 10’’, 56°C for 10’’, 72°C for 30’’ 42 cycles followed by a melting curve from 72°C to 95°C.

For another test, the system named is SUDLH8. In words: Lymphoma cell growth, cell counting following propidium iodide staining. It is filed as cell-based. The note with it: EZH2 W.T. (amplified), 48 h, PI negative cell count. The procedure: (§2) For clonogenic assays, cells were treated with compound for 48 h, media were removed and replaced with fresh media for a further 12 days to measure colony formation. For cell viability assays, lymphoma cells were plated at 20,000 cells in 200 μl per well in U-bottom 96 well plates in RPMI medium +20 % FCS. Cells were re-suspended 48 h later, diluted 10-fold in PBS + propidium iodide (PI) and the concentration of PI negative cells was counted using an Attune flow cytometer with autosampler. Breast cancer cells were seeded at a density of 10,000 cells/well in a sterile 96 clear-well plate with 150 μl of DMEM (+10 % FCS and 2 mM L-Glutamine). Each compound treatment was performed in triplicate for 72 h at concentrations of 100 nM and 1, 5, 10 and 50 μM in 100 μl of full-medium. After 72 h, 20 μl of MTT solution (3 mg of MTT Formazan, Sigma/1 ml PBS) was added to the medium and incubated for 4 h at 37 °C in a CO2 incubator. The MTT-product was solubilised with 100 μl DMSO, and for 1 h, incubated in the dark at room temperature. The optical density was read at 570 nm with PHERAstar.

Another test relates to WILL1. The test is described as above. It is filed as cell-based. Particulars: WILL-1, EZH2 W.T., 48 h, PI negative cell count. As to the method: as §2
A further test has as its system WSU-FSCLL. Described as above. It is filed as cell-based. The note with it: EZH2 W.T., 48 h, PI negative cell count. The procedure:
as §2

A further test concerns SC1. The test is described as above. The note with it: Homo sapiens, SC-1, EZH2 W.T., 48 h, PI negative cell count. It is filed as cell-based. The procedure: as §2
For a further test, the system named is DOHH2. Described as above. It is filed as cell-based. The note with it: Homo sapiens, DOHH-2, EZH2 W.T., 48 h, PI negative cell count. As to the method:
as §2

For the next test, the system named is DB. The test is described as above. It is filed as cell-based. The note with it: Homo sapiens, EZH2 Mutant Y646N, 48 h, PI negative cell count. As to the method:
as §2

In a further test the test system is MDA-MB-231 cells. Nature of the test: Clonogenic growth assay. It is filed as cell-based. The note with it: Homo sapiens; MDA-MB-231, 48 h treatment then 12 days in fresh media. As to the method: as §2
In another test the test system is H3K27me3 and H3K9me3. In words: Western analysis of global histone marks in MDA-MB-231 cells. It is filed as cell-based. Particulars: range of doses. The procedure:
MDA-MB-231 cells seeded in 6 well plates at a cell density of 3 x 10^5 were treated with HKMTI-1-005 (1–7.5uM) for 48 h. Following lysis in Triton Extraction Buffer (TEB, PBS containing 0.5 % Triton ×100 (v/v), 1/1000 protease inhibitor), nuclei were re-suspended in 0.2 N HCL at a density of 4 x 10^7 nuclei per millilitre and incubated overnight at 4 °C to acid-extract the histones, before being centrifuged at 6500g for 10 min at 4 °C. Protein concentration was determined using the Bradford assay. H3K27me3, H3K9me3, H3K9me2, H3K9me and total H3 protein expression levels in the histone extract samples were determined using Western blot analysis using H3K27me3 (1:1000; Abcam), H3K9me3 (1:1000; Abcam), H3K9me (1:1000) and H3 (1:2000; Abcam) antibodies. After washing, the membrane was incubated with a horseradish peroxidase-labelled secondary antibody (1 h, room temperature). The membrane was incubated for 1 min with 5 mL of Pierce ECL Western blotting substrate (Thermo Scientific). Images were captured using Konica Minolta SRX101A Tabletop X-Ray film processor.

The test system of another test is MCF10a. In words: MTT cell viability assay, normal breast epithelial cell line. The note with it: Homo sapiens, MCF-10A, read-out: Cell growth IC50 MCF10a. It is filed as cell-based. As to the method: as §2
For the next test, the system named is breast cancer cell lines. In words: MTT anti-proliferative effect on a small panel of breast cancer cell lines. It is filed as cell-based. Particulars: read-out: Anti-proliferative IC50 values, range over panel. The procedure: The anti-proliferative effect of HKMTI-1-005 on a small panel of breast cancer cell lines was determined, with IC50 values in the range 2–10 μM (Table 3). […] The breast cancer cell line BT-474, which is the cell line most sensitive to HKMTI-1-005 treatment, has the highest relative expression of EZH2, as detected by Western analysis (data not shown).
as §2, with “The MTT-product was solubilised with 100 μl DMSO, and for 1 h, incubated in the dark at room temperature.” left out

In the next test the test system is T-47D. Nature of the test: MTT cell viability assay. It is filed as cell-based. The note with it: Homo sapiens, T47D, read-out: Cell growth IC50 T-47D. The procedure:
as §2
A general note: Tetrazolium dyes change colour on reduction, which living cells bring about.

A further test deals with MCF-7. In words: MTT cell viability assay. It is filed as cell-based. The note with it: Homo sapiens, MCF7, read-out: Cell growth IC50 MCF-7. The procedure: as §2

Some results are limits rather than exact numbers.

trimeric PRC2 complex (EZH2:EED:SUZ12) (Homo sapiens, UniProt Q15910), sequence (Q15910 whole entry): as the sequence (Q15910 whole entry) above
trimeric PRC2 complex (EZH2:EED:SUZ12) (Homo sapiens, UniProt Q15910), sequence (O75530 whole entry partner): as the sequence (O75530 whole entry partner) above
trimeric PRC2 complex (EZH2:EED:SUZ12) (Homo sapiens, UniProt Q15910), sequence (Q15022 whole entry partner): as the sequence (Q15022 whole entry partner) above

The term IC50 denotes the concentration that gives 50% inhibition. Take `COc1cc2nc(N3CCN(C)CC3)nc(NC3CCN(Cc4ccccc4)CC3)c2cc1OC` [HKMTI-1-005]: the concentration for half-maximal inhibition (IC50) is 24 µM in [1]; less than 1 µM in the test on SUDLH8; 5.6 µM in the test with WILL1; 3.41 µM in the test on WSU-FSCLL; 3.71 µM in the test with SC1; 3.26 µM in the test on DOHH2. The IC50 in the test with DB is less than 1 µM; in the test on MDA-MB-231 cells, 0.41 µM; in the test with MCF10a, more than 15 µM; in the test on breast cancer cell lines, 2 to 10 µM; with T-47D it was 8.5 µM; in the test on MCF-7 it was 7.7 µM. Moreover, the “Mechanism of PRC2 inhibition” value in [2] is listed as “peptide substrate competitive”. Also, the “SPINK1 expression upon treatment” value in the test on SPINK1 is given as “increased”. Besides, the “Global levels of H3K27me3 and H3K9me3 (Western)” value with H3K27me3 and H3K9me3 is “reduced”.
